Laboratory results reported in ChEMBL document CHEMBL5257022, “An integrated overview on pyrrolizines as potential anti-inflammatory, analgesic and antipyretic agents” (Eur J Med Chem, 2016).
Values belong to the compound of their own block, whether it stands above or below them.

Columns and labels:
[1] = Toxicity in gastric mucosa of rat assessed as ulcer index at 200 mg/kg; type: organism-based; conditions: in vivo
[2] = Toxicity in gastric mucosa of rat assessed as ulcer index at 10 mg/kg; type: organism-based; conditions: in vivo
[3] = target: T1, Prostaglandin G/H synthase 2 (Homo sapiens, UniProt P35354); test: Inhibition of human COX2
T1 sequence (P35354 whole entry): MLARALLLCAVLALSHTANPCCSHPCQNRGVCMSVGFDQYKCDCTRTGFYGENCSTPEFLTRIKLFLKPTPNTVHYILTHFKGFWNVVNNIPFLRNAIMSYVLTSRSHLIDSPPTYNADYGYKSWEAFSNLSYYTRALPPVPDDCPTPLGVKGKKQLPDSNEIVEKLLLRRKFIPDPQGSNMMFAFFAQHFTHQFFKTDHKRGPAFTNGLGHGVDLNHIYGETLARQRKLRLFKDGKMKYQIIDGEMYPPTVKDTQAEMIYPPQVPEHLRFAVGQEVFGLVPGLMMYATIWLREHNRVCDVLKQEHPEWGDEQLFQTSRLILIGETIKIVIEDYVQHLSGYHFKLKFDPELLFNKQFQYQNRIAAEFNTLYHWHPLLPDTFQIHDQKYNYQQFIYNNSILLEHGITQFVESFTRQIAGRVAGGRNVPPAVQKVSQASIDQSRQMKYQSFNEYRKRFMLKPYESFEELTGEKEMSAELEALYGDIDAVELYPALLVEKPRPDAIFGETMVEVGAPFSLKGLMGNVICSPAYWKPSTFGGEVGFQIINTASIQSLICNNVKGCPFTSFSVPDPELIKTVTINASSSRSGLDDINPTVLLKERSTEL

[4] = target: T2, Prostaglandin G/H synthase 1 (Homo sapiens, UniProt P23219); test: Inhibition of human COX1
Rattus norvegicus [5] = test: Antiinflammatory activity in carrageenan induced Sprague-Dawley rat assessed as reduction in edema formation after 3 hrs; type: functional; conditions: read-out: ID50 (the source's name)
[6] = Gastrointestinal toxicity in rat assessed as ulcer index at 20 mg/kg, po; type: organism-based; conditions: in vivo
Rattus norvegicus [7] = test: Antiinflammatory activity in rat assessed as inhibition of paw edema; type: functional
[8] = target: T3, Prostaglandin G/H synthase 1 (Bos taurus) (UniProt O62664); test: Inhibition of COX1 in bovine thrombocyte at 10 uM relative to control
T3 sequence (whole entry): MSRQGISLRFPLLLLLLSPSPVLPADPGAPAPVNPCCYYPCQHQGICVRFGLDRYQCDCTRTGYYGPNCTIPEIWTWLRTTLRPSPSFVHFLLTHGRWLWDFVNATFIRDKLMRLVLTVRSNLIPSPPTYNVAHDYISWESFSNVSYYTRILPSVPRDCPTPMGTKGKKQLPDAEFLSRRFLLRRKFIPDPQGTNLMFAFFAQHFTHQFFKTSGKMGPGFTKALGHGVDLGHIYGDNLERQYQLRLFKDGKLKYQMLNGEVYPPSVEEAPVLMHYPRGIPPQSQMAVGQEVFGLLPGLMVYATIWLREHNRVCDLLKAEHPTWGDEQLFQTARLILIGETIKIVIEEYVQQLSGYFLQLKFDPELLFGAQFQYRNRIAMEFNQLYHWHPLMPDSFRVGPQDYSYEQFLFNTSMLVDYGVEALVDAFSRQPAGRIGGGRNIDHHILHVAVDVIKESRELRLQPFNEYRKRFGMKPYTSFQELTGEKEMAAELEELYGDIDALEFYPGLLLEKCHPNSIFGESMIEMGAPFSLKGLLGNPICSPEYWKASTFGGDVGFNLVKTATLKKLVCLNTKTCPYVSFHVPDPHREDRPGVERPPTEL

[9] = target: T2, Prostaglandin G/H synthase 1; test: Inhibition of COX1 (unknown origin)
Mus musculus [10] = test: Analgesic activity in ddY mouse assessed as inhibition of acetic acid induced writhing at 30 mg/kg, po for 30 mins followed by acetic acid injection and measured after 5 to 10 mins; type: functional; parameters: scale not given: the % may be the effect or the level left; conditions: time 35-40 min
Rattus norvegicus [11] = test: Antiinflammatory activity against carrageenan-induced paw edema in Wistar rat assessed as inhibition of edema at 30 mg/kg, po for 1 hr prior to carrageenan induction; type: functional
[12] = target: T4, Polyunsaturated fatty acid 5-lipoxygenase (Homo sapiens, UniProt P09917); test: Inhibition of 5-LOX (unknown origin)
T4 sequence (P09917 whole entry): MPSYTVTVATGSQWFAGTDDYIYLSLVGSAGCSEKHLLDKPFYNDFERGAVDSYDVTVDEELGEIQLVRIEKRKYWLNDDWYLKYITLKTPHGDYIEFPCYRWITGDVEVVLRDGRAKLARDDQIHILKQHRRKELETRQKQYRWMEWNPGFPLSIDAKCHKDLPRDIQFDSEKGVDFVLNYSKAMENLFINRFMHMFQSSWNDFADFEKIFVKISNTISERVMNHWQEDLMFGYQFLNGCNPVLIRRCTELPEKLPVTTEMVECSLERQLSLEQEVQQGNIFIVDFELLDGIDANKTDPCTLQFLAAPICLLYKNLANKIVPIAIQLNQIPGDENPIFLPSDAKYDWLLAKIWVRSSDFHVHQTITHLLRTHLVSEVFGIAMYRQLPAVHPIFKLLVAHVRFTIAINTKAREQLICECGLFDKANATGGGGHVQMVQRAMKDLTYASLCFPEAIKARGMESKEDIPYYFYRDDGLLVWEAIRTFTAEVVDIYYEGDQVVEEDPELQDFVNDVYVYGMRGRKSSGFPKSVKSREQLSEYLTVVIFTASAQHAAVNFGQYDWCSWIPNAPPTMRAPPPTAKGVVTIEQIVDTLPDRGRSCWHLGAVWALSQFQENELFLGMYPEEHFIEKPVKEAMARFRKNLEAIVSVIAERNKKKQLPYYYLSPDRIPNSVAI

[13] = Toxicity in gastric mucosa of rat assessed as ulcer index at 400 mg/kg; type: organism-based; conditions: in vivo
[14] = Drug excretion in human urine assessed as keto ro lac level; type: ADME
[15] = Drug excretion in human urine assessed as 4-hydroxy keto ro lac level; type: ADME
[16] = Drug excretion in human urine assessed as glucuronide conjugate level; type: ADME
[17] = target: T5, Polyunsaturated fatty acid 5-lipoxygenase (Homo sapiens) (UniProt P09917); test: Inhibition of 5-LOX in human PMNL at 10 uM relative to control; type: cell-based
T5 sequence (whole entry): T4 sequence (P09917 whole entry)

[18] = target: T1, Prostaglandin G/H synthase 2; test: Inhibition of COX2 (unknown origin)
Oryctolagus cuniculus = species: Oryctolagus cuniculus; test: Inhibition of collagen-induced platelet aggregation in rabbit concha artery blood at 10 uM; type: functional
Rattus norvegicus [19] = test: Antiinflammatory activity in rat assessed as fold change in inhibition of paw edema relative to phenylbutazone; type: functional
Mus musculus [20] = species: Mus musculus; test: Analgesic activity in mouse assessed as inhibition of acetic acid-induced writhing response relative to aspirin; type: functional

T2 sequence (P23219 whole entry): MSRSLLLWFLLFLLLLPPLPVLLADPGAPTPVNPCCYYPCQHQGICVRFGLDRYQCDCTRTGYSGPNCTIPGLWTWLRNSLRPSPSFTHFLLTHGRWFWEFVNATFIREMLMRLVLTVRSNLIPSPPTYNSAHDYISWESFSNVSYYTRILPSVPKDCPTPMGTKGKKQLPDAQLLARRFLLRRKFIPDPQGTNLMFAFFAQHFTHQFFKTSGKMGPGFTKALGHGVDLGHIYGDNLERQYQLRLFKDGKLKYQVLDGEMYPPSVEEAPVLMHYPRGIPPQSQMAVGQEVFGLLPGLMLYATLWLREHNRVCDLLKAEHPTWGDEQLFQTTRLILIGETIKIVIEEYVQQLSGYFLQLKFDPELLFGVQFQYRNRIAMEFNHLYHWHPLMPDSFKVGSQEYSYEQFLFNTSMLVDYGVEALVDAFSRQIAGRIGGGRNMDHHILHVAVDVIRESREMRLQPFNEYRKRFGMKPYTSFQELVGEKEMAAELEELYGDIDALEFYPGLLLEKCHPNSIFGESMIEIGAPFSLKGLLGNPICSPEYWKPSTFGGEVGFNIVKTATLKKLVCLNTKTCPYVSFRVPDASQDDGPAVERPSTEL

Structure (SMILES): CC(C)Cc1ccc(C(C)C(=O)O)cc1 (configuration not stated) [IBUPROFEN]
UI [1]: 13.3

Structure (SMILES): COc1ccc2c(c1)c(CC(=O)O)c(C)n2C(=O)c1ccc(Cl)cc1 [INDOMETHACIN]
UI [2]: 14

Structure (SMILES): O=C(c1ccccc1)c1ccc2n1CC[C@@H]2C(=O)O
IC50 [3]: 1.46 µM | IC50 [4]: 0.46 µM | ED50 (Rattus norvegicus [5]): 0.02 mg/kg

Structure (SMILES): N#Cc1c(N)c(C(=O)Nc2ccccc2Cl)n2c1CCC2
UI [6]: 9.2 | inhibition (INH) (Rattus norvegicus [7]): 36.1%

IP [8]: 58% | IC50 [9]: 10 µM
Structure (SMILES): O=C(O)/C=C/c1c(-c2ccc(CCc3ccccc3)cc2)c(-c2ccccc2)c2n1CCC2

Structure (SMILES): O=C(c1ccccc1)c1ccc2n1CC[C@H]2C(=O)O
IC50 [3]: > 100 µM | IC50 [4]: > 100 µM | ED50 (Rattus norvegicus [5]): 4 mg/kg

Structure (SMILES): COc1ccc(-c2c(-c3ccc(Cl)cc3)cc3n2CCC3C(=O)O)cc1 (configuration not stated)
Activity (Mus musculus [10]): 87.3% | inhibition in vivo at 30 mg/kg (Rattus norvegicus [11]): 48.2%

IC50 [12]: 10 µM | IP [8]: 20%
Structure (SMILES): c1ccc(-c2c(-c3ccco3)cn3c2CCC3)cc1

Structure (SMILES): Cc1ccccc1NC(=O)c1c2[nH]cnc(=O)c2c2n1CCC2
UI [6]: 17.4 | inhibition (INH) (Rattus norvegicus [7]): 28.8%

Drug excretion [14]: 60% | Drug excretion [15]: 12% | Drug excretion [16]: 28%
Structure (SMILES): Cc1ccc(NCC2Cn3cccc3C2=O)cc1 (configuration not stated)
UI [13]: 0

IP [17]: 0% | IP [8]: 0%
Structure (SMILES): CS(=O)(=O)Nc1ccc(-c2cn3c(c2-c2ccc(Cl)cc2)CCC3)cc1

IP [17]: 0% | IP [8]: 28% | IC50 [18]: 0.1 µM
Structure (SMILES): CSc1ccc(-c2cn3c(c2-c2ccc(F)cc2)CCC3)cc1

IP [17]: 0% | IP [8]: 0% | IC50 [18]: 1.8 µM
Structure (SMILES): Cc1ccc(-c2cn3c(c2-c2ccccc2)CCC3)s1

IC50 [12]: 8.4 µM | IP [8]: 25%
Structure (SMILES): Brc1ccc(-c2cn3c(c2-c2ccccc2)CCC3)s1

Structure (SMILES): O=C(Nc1ccccc1)C1CCn2c1cc(-c1ccc(Cl)cc1)c2-c1ccc(Cl)cc1 (configuration not stated)
inhibition at 10 µM (Oryctolagus cuniculus): 78% | inhibition in vivo at 30 mg/kg (Rattus norvegicus [11]): 37.4%

IC50 [12]: 10 µM | IP [8]: 25% | IC50 [18]: 0.03 µM
Structure (SMILES): CS(=O)(=O)c1ccc(-c2cn3c(c2-c2ccccc2)CCC3)cc1

Structure (SMILES): O=C(c1ccccc1)c1ccc2n1CCC2C(=O)O (racemic) [KETOROLAC]
fold change (FC) (Rattus norvegicus [19]): 36 | IC50 [3]: 3.5 µM | IC50 [4]: 1.23 µM | fold change (FC) (Mus musculus [20]): 350 | ED50 (Rattus norvegicus [5]): 0.08 mg/kg

Structure (SMILES): O=C(Nc1ccccc1Cl)c1c2[nH]cnc(=O)c2c2n1CCC2
UI [6]: 15.1 | inhibition (INH) (Rattus norvegicus [7]): 30.3%

IC50 [12]: 10 µM
Structure (SMILES): c1ccc(-c2c(-c3cccs3)cn3c2CCC3)cc1

Structure (SMILES): Cc1ccccc1NC(=O)c1c(N)c(C#N)c2n1CCC2
UI [6]: 11.3 | inhibition (INH) (Rattus norvegicus [7]): 31.6%

Structure (SMILES): O=C(O)C1CCn2c1cc(-c1ccc(Cl)cc1)c2-c1ccc(Cl)cc1 (configuration not stated)
Activity (Mus musculus [10]): 81.3% | inhibition in vivo at 30 mg/kg (Rattus norvegicus [11]): 52.3%

IC50 [12]: 3.4 µM | IP [8]: 10% | IC50 [18]: 3.6 µM
Structure (SMILES): CS(=O)(=O)Nc1ccc(-c2cn3c(c2-c2ccccc2)CCC3)cc1
